Results on three compounds are retold here after patent publication US8926955B2, “Synthesis of polymer conjugates of indolocarbazole compounds” (priority 2008, dated 2015).

The subject of data set [1] is Balb/c 3T3 cells. It is filed as cell-based. The conditions noted are these: mouse. How it is done: The potential in vitro phototoxicity of the test item was evaluated by the measurements of neutral red uptake for cellular toxicity on cultures of Balb/c 3T3 cells treated with different doses of the test item and exposed to UVA irradiation. Test item solutions were prepared using Earle's Balanced Salt Solution (EBSS).
A preliminary dose-range finding experiment in the presence (+UVA) and in the absence (−UVA) of light was undertaken in order to select appropriate dose levels for the main assays. The test item was assayed at a maximum dose level of 1000 μg/ml (the upper limit indicated in the study protocol) and at a wide range of lower dose levels: 500, 250, 125, 62.5, 31.3, 15.6 and 7.81 μg/ml. […] In this case the chemical is considered to be non-phototoxic. The same dose range was used for the main assay.
A main experiment was performed using the following dose levels: 1000, 500, 250, 125, 62.5, 31.3, 15.6 and 7.81 μg/ml.

Data set [2] concerns guinea pig. As to the kind of experiment: Photosensitisation test in guinea pigs. It is filed as in vivo. As for the experimental part: The second phase of the study was an assessment of sensitisation, in which a total of 5 groups were treated as follows (Table 7):
The photosensitisation test was undertaken using 2 groups of 10 animals (cf. Table 7, groups 8 and 9) induced with the control item and the test item and 1 control group of 10 animals (cf. Table 7, group 7) induced with the selected vehicle (purified water). In an attempt to induce sensitisation, animals were intradermally injected with an emulsion of Freund's complete adjuvant. The test and control items, at 100% concentration, were applied topically over the area among the injection sites of FCA a total of 6 times over a 2 week period. Animals were exposed to both UVA (10 Joules/cm^2) and UVB (0.1 Joules/cm^2) radiation following dosing. Control group animals were treated in the same manner but the selected vehicle (purified water) was used in place of the test or control items. Approximately 2 weeks after the final induction exposure, all animals were challenged by topical application of both the vehicle and the test or control item at 20% and 50% concentrations, respectively. These concentrations were selected as they were considered non-irritant to the skin in association with ultraviolet irradiation on the basis of the results obtained at the photoirritation test. Animals of the 2 test groups and the control group were exposed to both UVA (10 Joules/cm^2) and UVB (0.1 Joule/cm^2) radiation following dosing. Additional sites on each animal were topically treated with both the vehicle and test or control items, but treatment was not followed by exposure to ultraviolet irradiation. Approximately 24, 48 and 72 hours after challenge exposure the treated sites were examined for evidence of reaction to treatment.
One group of 5 animals (cf. Table 7, group 11) was induced with this substance at a concentration of 15% in acetone. A control group of 3 animals (cf. Table 7, group 10) was treated in the same manner with the vehicle alone (acetone). A concentration of 10% of the reference item (Musk Ambrette) in acetone was selected for the challenge. […]

The test system of data set [3] is Chinese hamster ovary cells. As to the kind of experiment: Chromosome aberrations in Chinese hamster ovary cells in vitro (photomutagenicity assay). The conditions noted are these: 3 hours treatment, absence or presence of ultraviolet light.
Description: The test item was assayed for the ability to cause chromosomal damage in Chinese hamster ovary cells, following in vitro treatment in the absence and presence of UVA/UVB irradiation.
Solutions of the test item were prepared in Hank's Balanced Salt Solution (HBSS).
Both in the absence and presence of UV light, the cells were treated for 3 hours and the harvest time of 20 hours, corresponding to approximately 1.5 cell cycle, was used.
The experiment included appropriate negative and positive controls. Two cell cultures were prepared at each test point.
Dose levels were selected for the scoring of chromosomal aberrations on the basis of the cytotoxicity of the test item treatments as determined by the reduction of cell counts at the time of harvesting.
One hundred metaphase spreads were scored for chromosomal aberrations from each culture.
The subject of data set [4] is guinea pig. Put plainly: Photoirritation test in guinea pigs. The data set is classed as in vivo. As for the experimental part: The potential of the test item 0.1% cream to cause photoallergic and/or photoirritant reactions following topical application to the skin, in association with exposure to ultraviolet light, was assessed using a guinea pig model.
In the first phase, an assessment of the photoirritant properties of the test item was performed in 6 groups of animals. These were used both to establish suitable concentrations of the test item for use in the sensitisation assay and to provide information on photo-induced irritation. Animals were treated as follows (Table 6):
The photoirritation test was undertaken using 2 (irradiated) groups, each of 5 animals, treated with the control and test items, cream placebo and test item 0.1% cream, respectively (cf. Table 6, groups 1 and 3) and 2 similarly constituted groups (cf. Table 6, groups 2 and 4), treated in the same manner but not irradiated. Aliquots of the undiluted test or control item (100%), 2 concentrations (20% and 50% in purified water) of the test and control items and the vehicle alone (purified water), were spread evenly over defined skin sites prepared on the dorsum of the animals. Animals of the irradiated groups (groups 1 and 3) were exposed to both UVA (10 Joules/cm^2) and UVB (0.1 Joules/cm^2) radiation following dosing. […]

Structures are written as SMILES.

Regarding `CN(C)CCCN1c2ccccc2Sc2ccc(Cl)cc21` [Chlorpromazine, reference compound], the “Photo Irritation Factor (PIF)” value in data set [1] was determined as 21.9.

As for `COc1c(C(C)(C)C)cc([N+](=O)[O-])c(C)c1[N+](=O)[O-]` [Musk Ambrette], the response at challenge result in data set [2] (group 10, induced with the vehicle) is on record as “No response to the reference item was observed”; in data set [2] (group 11, sites treated but not irradiated), “No response to the reference item was observed”. Moreover, the “animals responding at challenge (very slight to slight erythema)” value in data set [2] (group 11 (induced at 15% in acetone), challenge at 10% followed by UV irradiation) is given as 4/5.

In the case of `COc1c2occc2cc2ccc(=O)oc12` [8-Methoxypsoralen], the “cells bearing chromosomal aberrations (including or excluding gaps)” value in data set [3] is recorded as “Statistically significant increases”. Further, the skin reaction result is “well defined to moderate erythema and a slight oedema” in data set [4] (exposed to ultraviolet light, concentrations 0.01% and 0.1%); “No response was seen” in data set [4] (without exposure to ultraviolet light).
